Key:
C3H/HeOuJ mice [1] = assay: T maze spontaneous alternation spatial memory performance test; format: in vivo; conditions: CMA sensitized mice
Procedure: (§1) Pathogen-free, male C3H/HeOuJ mice (4 weeks old, Charles River Laboratories) mice were bred and raised on a cow's milk protein-free diet (Special Diet Services, Witham, UK) and housed on a 12 h light-dark cycle with access to food and water ad libitum. All animal procedures were conducted in accordance with the guidelines of the Dutch Committee of Animal Experiments. The mice were sensitized orally with 0.5 mL homogenized whey protein (40 mg/mL PBS) and cholera toxin (CT, 20 μg/mL PBS, Quadratech Diagnostics) as an adjuvant; sham-sensitized mice received CT alone. Mice were orally boosted once a week for 5 consecutive weeks. One week after the last sensitization, mice were challenged orally with 0.5 mL whey (100 mg/mL PBS). The mice were fed a control diet, or a diet supplemented with glutamine (5 wt %). At the end, the mice were subjected to social interaction and spatial memory tests. Cow's milk allergy is associated with disturbed social interaction and impaired spatial memory, and thus suited to study the effects of dietary intervention there. […] The percentage of alternation (number of turns in each goal arm) and total trial duration are recorded. This test is used to quantify cognitive deficits in transgenic strains of mice and evaluate novel chemical entities for their effects on cognition. […]

C3H/HeOuJ mice [2] = assay: Social interaction test in cow's milk allergy model mice and unsensitized mice; format: in vivo
Procedure: as §1, with “By using video tracking software (EthoVision 3.1.16, Noldus), an interaction zone around the cage was digitally determined. Time spent in the interaction zone as well as frequency” for “The percentage”, “entering the interaction zone over the selected time period was measured.” for “alternation (number of turns in each goal arm) and total trial duration are recorded. This test is used to quantify cognitive deficits in transgenic strains of mice and evaluate novel chemical entities for their effects on cognition.”

NC(=O)CC[C@H](N)C(=O)O [glutamine, L-glutamine]
% Alternation in spatial memory test (C3H/HeOuJ mice [1]; diet supplemented with glutamine (5 wt %), mean, s.e.): 66.7 +/− 6.4 (n = 12) %
Reduced alternation in the T-maze test vs control CMA-mice, in words (C3H/HeOuJ mice [1]; diet with supplementation of Gln): markedly improved
Time spent in interaction zone (C3H/HeOuJ mice [2]; CMA sensitized mice, diet supplemented with glutamine (5 wt %), mean +/- s.e.): 117 +/− 20.8 (n = 12) sec
Time spent in the interaction zone (C3H/HeOuJ mice [2]; unsensitized mice fed the Gln diet): 174 ± 19.1 s

Reference: US20170042849A1, “COMPOSITION FOR BRAIN IMPROVEMENT” (N.V. Nutricia, priority 2014, published 2017)
